In ChEMBL document CHEMBL5316264, “Identification of N- and C-3-Modified Laudanosoline Derivatives as Novel Influenza PAN Endonuclease Inhibitors” (J Med Chem, 2023):
Activity calls are given as the source filed them. The rule behind the calls is not given here.

Columns and labels:
[1] = Metabolic stability in mouse liver microsomes assessed as intrinsic clearance at 10 uM incubated for 5 mins in presence of NADPH by LC-MS/MS analysis; format: ADME, Microsome; details: read-out: CLH
[2] = Metabolic stability in mouse liver microsomes assessed as half life at 10 uM incubated for 5 mins in presence of NADPH by LC-MS/MS analysis; format: ADME, Microsome
[3] = in vitro; details: dog, MDCK cells
[4] = Cytotoxicity against MDCK cells incubated for 48 hrs by MTT assay; format: toxicity, cell-based, Canis lupus familiaris; details: dog
[5] = tested on: Influenza A virus; assay: Antiviral activity against influenza A virus Flu (B/Lee/1940) infected in MDCK cells assessed as inhibition of cytopathic effect incubated for 48 hrs by MTT assay; format: functional, organism-based
[6] = tested on: Influenza A virus; assay: Antiviral activity against influenza A virus H3N2(JX/312) infected in MDCK cells assessed as inhibition of cytopathic effect incubated for 48 hrs by MTT assay; format: functional, organism-based
[7] = tested on: Influenza A virus; assay: Antiviral activity against influenza A virus H5N1(A/Duck/Guangdong/212/2004) infected in MDCK cells assessed as inhibition of cytopathic effect incubated for 48 hrs by MTT assay; format: functional, organism-based
[8] = Metabolic stability in mouse plasma assessed as compound remaining measured after 120 mins by LC-MS/MS analysis; format: ADME, cell-free; details: read-out: Stability
[9] = Metabolic stability in mouse plasma assessed as compound remaining measured after 30 mins by LC-MS/MS analysis; format: ADME, cell-free; details: read-out: Stability
[10] = Metabolic stability in mouse plasma assessed as compound remaining measured after 60 mins by LC-MS/MS analysis; format: ADME, cell-free; details: read-out: Stability
[11] = Metabolic stability in mouse plasma assessed as compound remaining measured after 90 mins by LC-MS/MS analysis; format: ADME, cell-free; details: read-out: Stability
[12] = target: Polymerase acidic protein (Influenza A virus (A/Puerto Rico/8/1934(H1N1))) (UniProt P03433); assay: Inhibition of Influenza A virus N-terminal domain of PA endonuclease using 6FAM-TGGCAATATCAGCTCCACA-MGBNFQ as fluorescent substrate by FRET analysis
[13] = tested on: Influenza A virus; assay: Antiviral activity against Influenza A A/WSN/33 (H1N1) infected in BALB/c mouse at 10 mg/kg/day, ip administered twice daily for 5 days starting from 1 hrs post infection and measured daily for 14 days; format: functional, organism-based; details: time 5.0 day
[14] = tested on: Influenza A virus; assay: Antiviral activity against influenza A virus A/WSN/33 (H1N1) infected in MDCK cells at 20 uM pre-infected with virus for 1 hr followed by compound addition and measured after 24 hrs post infection; format: functional, organism-based

| Structure (SMILES) | selectivity ratio [3] | CC50 at 48 h [4] [µM] | also measured |
| --- | --- | --- | --- |
| O=C(O)Cc1ccccc1Nc1c(Cl)cccc1Cl [DICLOFENAC] | – | – | microsomal CLint at 10 µM [1]: 112 µL/min/mg; half-life at 10 µM [2]: 12.1 min |
| COC(=O)[C@@H]1Cc2cc(O)c(O)cc2[C@H](Cc2ccc(O)c(O)c2)N1C(=O)c1ccccc1C(F)(F)F | > 11.1 | > 101 | – |
| COC(=O)[C@@H]1Cc2cc(O)c(O)cc2[C@H](Cc2ccc(O)c(O)c2)N1C(=O)c1ccccc1[N+](=O)[O-] | > 9.2 | > 101 | – |
| O=C(O)[C@@H]1Cc2cc(O)c(O)cc2[C@H](Cc2ccc(O)c(O)c2)N1C(=O)c1ccccc1Cl | 5.4 | 103 | – |
| COC(=O)[C@@H]1Cc2cc(O)c(O)cc2[C@H](Cc2ccc(O)c(O)c2)N1C(=O)c1ccc(F)cc1 | > 33.6 | > 101 | – |
| COC(=O)[C@@H]1Cc2cc(O)c(O)cc2[C@H](Cc2ccc(O)c(O)c2)N1C(=O)c1c(Cl)cccc1Cl | 15.5 | 81.6 | – |
| CN(C)C(=O)[C@@H]1Cc2cc(O)c(O)cc2[C@H](Cc2ccc(O)c(O)c2)N1C(=O)c1ccccc1Cl | 10.8 | 137 | – |
| COC(=O)[C@@H]1Cc2cc(O)c(O)cc2[C@H](Cc2ccc(O)c(O)c2)N1C(=O)c1ccc(Cl)cc1Cl | > 21.2 | > 101 | – |
| COC(=O)[C@@H]1Cc2cc(O)c(O)cc2[C@H](Cc2ccc(O)c(O)c2)N1C(=O)c1ccccc1F | 29.7 | 82.3 | – |
| COC(=O)[C@@H]1Cc2cc(O)c(O)cc2[C@H](Cc2ccc(O)c(O)c2)N1C(=O)c1ccccc1Cl | 49.3 | 89.8 | EC50 [5]: 0.86 µM; EC50 [6]: 0.92 µM; EC50 [7]: 2.36 µM |
| COC(=O)[C@@H]1Cc2cc(O)c(O)cc2[C@H](Cc2ccc(O)c(O)c2)N1C(=O)c1ccc2ccccc2c1 | 15.6 | 45.2 | – |
| COC(=O)[C@@H]1Cc2cc(O)c(O)cc2[C@H](Cc2ccc(O)c(O)c2)N1C(=O)c1cccc(C(F)(F)F)c1 | > 11.8 | > 101 | – |
| C=CC(=O)N1[C@H](C(=O)OC)Cc2cc(O)c(O)cc2[C@@H]1Cc1ccc(O)c(O)c1 | 8.9 | 47.5 | – |
| COC(=O)[C@@H]1Cc2cc(O)c(O)cc2[C@H](Cc2ccc(O)c(O)c2)N1C(=O)c1cccc([N+](=O)[O-])c1 | > 5.3 | > 101 | – |
| O=C(Nc1ccncc1)[C@@H]1Cc2cc(O)c(O)cc2[C@H](Cc2ccc(O)c(O)c2)N1C(=O)c1ccccc1Cl | 101 | 203 | EC50 [5]: 0.82 µM; EC50 [6]: 0.95 µM; EC50 [7]: 2.85 µM |
| COC(=O)[C@@H]1Cc2cc(O)c(O)cc2[C@H](Cc2ccc(O)c(O)c2)N1C(=O)c1cccc(F)c1 | 25.8 | 73.7 | – |
| CC(C)[N+](C)(CCOC(=O)C1c2ccccc2Oc2ccccc21)C(C)C [PROPANTHELINE BROMIDE] | – | – | remaining at 2 h [8]: 2%; remaining at 0.5 h [9]: 45.5%; remaining at 1 h [10]: 18.2%; remaining at 1.5 h [11]: 10.3% |
| O=C(Nc1ccccc1)[C@@H]1Cc2cc(O)c(O)cc2[C@H](Cc2ccc(O)c(O)c2)N1C(=O)c1ccccc1Cl | 10.8 | 169 | – |

| Structure (SMILES) | selectivity ratio [3] | CC50 at 48 h [4] [µM] | also measured |
| --- | --- | --- | --- |
| COC(=O)[C@@H]1Cc2cc(O)c(O)cc2[C@H](Cc2ccc(O)c(O)c2)N1C(=O)c1cccc(Br)c1 | > 26.4 | > 101 | – |
| COC(=O)COC(=O)[C@@H]1Cc2cc(O)c(O)cc2[C@H](Cc2ccc(O)c(O)c2)N1C(=O)c1ccccc1Cl | 67.1 | 163 | – |
| COC(=O)CNC(=O)[C@@H]1Cc2cc(O)c(O)cc2[C@H](Cc2ccc(O)c(O)c2)N1C(=O)c1ccccc1Cl | 36.8 | 143 | – |
| COC(=O)[C@@H]1Cc2cc(O)c(O)cc2[C@H](Cc2ccc(O)c(O)c2)N1C(=O)c1ccccc1 | 29.7 | 157 | inhibition [12]: Dose-Dependent Effect |
| CCCCCCC(=O)N1[C@H](C(=O)OC)Cc2cc(O)c(O)cc2[C@@H]1Cc1ccc(O)c(O)c1 | 5.1 | 84.3 | – |
| COC(=O)[C@@H]1Cc2cc(O)c(O)cc2[C@H](Cc2ccc(O)c(O)c2)N1C(=O)c1ccccc1Br | > 29.5 | > 101 | – |
| CN1CCc2cc(O)c(O)cc2C1Cc1ccc(O)c(O)c1 (racemic) | > 5.4 | > 200 | – |
| CCOC(=O)[C@@H]1Cc2cc(O)c(O)cc2[C@H](Cc2ccc(O)c(O)c2)N1C(=O)c1ccccc1Cl | 30.7 | 98.5 | – |
| COC(=O)[C@@H]1Cc2cc(O)c(O)cc2[C@H](Cc2ccc(O)c(O)c2)N1C(=O)c1ccc(C(F)(F)F)cc1 | > 10.8 | > 101 | – |
| COC(=O)[C@@H]1Cc2cc(O)c(O)cc2[C@H](Cc2ccc(O)c(O)c2)N1C(=O)C1CCCCC1 | 3.4 | 64.5 | – |
| CCC(CC)[C@H](NC(C)=O)[C@@H]1[C@H](O)[C@@H](C(=O)O)C[C@H]1NC(=N)N [PERAMIVIR ANHYDROUS] | > 19.2 | > 101 | EC50 [5]: 1.66 µM; EC50 [6]: 215 µM; Activity [13]: Active; EC50 [7]: 1.06 µM |
| CC(=O)N[C@H]1[C@H]([C@H](O)[C@H](O)CO)OC(C(=O)O)=C[C@@H]1NC(=N)N | – | – | Activity [14]: inactive |
| COC(=O)[C@@H]1Cc2cc(O)c(O)cc2[C@H](Cc2ccc(O)c(O)c2)N1C(=O)c1ccc(Cl)cc1 | 34.5 | 87.4 | – |
| O=C1c2c(O)c(=O)ccn2N([C@@H]2c3ccccc3SCc3c2ccc(F)c3F)[C@@H]2COCCN12 [BALOXAVIR] | > 11700 | > 100 | – |
| COC(=O)[C@@H]1Cc2cc(O)c(O)cc2[C@H](Cc2ccc(O)c(O)c2)N1C(=O)c1ccc(Br)cc1 | > 25.5 | > 101 | – |
| COC(=O)[C@@H]1Cc2cc(O)c(O)cc2[C@H](Cc2ccc(O)c(O)c2)N1C(=O)c1cccc(Cl)c1 | 25.3 | 61.1 | – |
| O=C(O[C@@H]1Cc2c(O)cc(O)cc2O[C@@H]1c1cc(O)c(O)c(O)c1)c1cc(O)c(O)c(O)c1 [EPIGALOCATECHIN GALLATE] | > 3.3 | > 100 | – |
| O=C(Oc1ccccc1)[C@@H]1Cc2cc(O)c(O)cc2[C@H](Cc2ccc(O)c(O)c2)N1C(=O)c1ccccc1Cl | 52.1 | 70.3 | – |
